In ChEMBL document CHEMBL1133790, “Heteroaryl and cycloalkyl sulfonamide hydroxamic acid inhibitors of matrix metalloproteinases” (Bioorg Med Chem Lett, 2001) one finds Activity, inhibition and IC50 data, which are given here for 9 compounds.

The subject of test [1] is Rattus norvegicus. Kind of test: Inhibitory activity against MMP-9 in rat dialysis implant bioactivity model at oral dose of 100 mg/kg; In active. On the set-up: dose 100 mg/kg. Format: functional, organism-based.
Test [2] has as its target T1, Interstitial collagenase (Homo sapiens) (UniProt P03956).
T1 sequence (whole entry): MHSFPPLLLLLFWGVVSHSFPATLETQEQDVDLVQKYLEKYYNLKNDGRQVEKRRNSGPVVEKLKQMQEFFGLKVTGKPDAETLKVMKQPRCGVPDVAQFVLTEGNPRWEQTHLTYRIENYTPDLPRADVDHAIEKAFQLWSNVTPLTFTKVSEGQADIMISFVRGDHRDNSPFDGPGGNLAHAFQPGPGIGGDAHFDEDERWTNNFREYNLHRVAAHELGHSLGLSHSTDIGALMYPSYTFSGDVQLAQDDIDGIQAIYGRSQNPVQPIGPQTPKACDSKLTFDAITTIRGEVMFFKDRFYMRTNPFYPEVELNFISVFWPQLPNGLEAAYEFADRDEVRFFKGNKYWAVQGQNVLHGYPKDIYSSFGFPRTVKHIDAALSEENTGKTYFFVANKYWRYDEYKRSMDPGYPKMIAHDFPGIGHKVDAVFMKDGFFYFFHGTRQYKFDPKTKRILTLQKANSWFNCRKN
As to the kind of experiment: Inhibition of Matrix metalloprotease-1 at 1 uM.

Test [3] deals with T2, Matrix metalloproteinase-9 (Homo sapiens, UniProt P14780). As to the kind of experiment: Inhibition of Matrix metalloprotease-9.
T2 sequence (P14780 whole entry): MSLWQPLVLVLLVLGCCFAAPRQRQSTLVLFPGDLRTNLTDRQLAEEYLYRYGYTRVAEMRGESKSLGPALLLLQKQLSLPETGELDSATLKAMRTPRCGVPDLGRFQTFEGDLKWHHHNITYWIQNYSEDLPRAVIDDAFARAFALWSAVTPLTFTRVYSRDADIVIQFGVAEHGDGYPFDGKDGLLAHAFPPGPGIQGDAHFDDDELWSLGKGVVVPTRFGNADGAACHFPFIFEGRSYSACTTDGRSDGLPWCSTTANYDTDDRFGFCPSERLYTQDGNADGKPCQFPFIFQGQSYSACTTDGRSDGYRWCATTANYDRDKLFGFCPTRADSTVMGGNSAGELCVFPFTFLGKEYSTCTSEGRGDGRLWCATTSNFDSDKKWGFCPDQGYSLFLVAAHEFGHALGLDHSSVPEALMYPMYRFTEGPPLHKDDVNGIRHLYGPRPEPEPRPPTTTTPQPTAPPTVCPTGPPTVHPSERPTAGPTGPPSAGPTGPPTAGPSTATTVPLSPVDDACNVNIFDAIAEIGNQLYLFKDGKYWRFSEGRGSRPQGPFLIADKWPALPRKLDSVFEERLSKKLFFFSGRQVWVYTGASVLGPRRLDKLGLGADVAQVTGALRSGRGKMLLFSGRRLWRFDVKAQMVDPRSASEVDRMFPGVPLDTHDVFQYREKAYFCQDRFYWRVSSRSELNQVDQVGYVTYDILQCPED
Test [4] addresses T2, Matrix metalloproteinase-9. As to the kind of experiment: Inhibition of Matrix metalloprotease-9 at 10 uM.
The target of test [5] is T3, Interstitial collagenase (Homo sapiens, UniProt P03956).
T3 sequence (P03956 whole entry): T1 sequence (whole entry)
Kind of test: Inhibition of Matrix metalloprotease-1.

The target of test [6] is T2, Matrix metalloproteinase-9. Kind of test: Inhibition of Matrix metalloprotease-9 at 0.3 uM.
Test [7] has as its target T4, Collagenase 3 (Homo sapiens, UniProt P45452). Kind of test: Inhibition of Matrix metalloprotease-13 at 0.3 uM.
The target in test [8] is T4, Collagenase 3. As to the kind of experiment: Inhibition of Matrix metalloprotease-13.
In test [9] the test system is Rattus norvegicus. As to the kind of experiment: In vivo inhibitory activity against Matrix metalloprotease-13 in rat dialysis implant bioactivity model at a concentration of 50 mg/kg; Not active. Format: functional, organism-based. The arrangement: dose 50 mg/kg.

Each structure is given as a SMILES string. Active and inactive are the calls of the source. The calls are words filed in the database; no cut-off is given here.

The inhibition is the drop in the measured response relative to a control, in per cent. A low value points to little suppression. For the compound `COc1ccc(S(=O)(=O)N(Cc2cccnc2)c2c(C(=O)NO)csc2Br)cc1`, the result in [1] was inactive. Besides, the inhibition in test [2] is 50%. The IC50 is the midpoint of a concentration-inhibition curve. In test [2], `COc1ccc(S(=O)(=O)N(Cc2ccccc2)c2c(C(=O)NO)cnn2C)cc1` showed an inhibition of 22%. For the same compound, inhibition in test [3] was half-maximal at 900 nM (IC50).

In the case of `COc1ccc(S(=O)(=O)N(Cc2ccccc2)c2ccsc2C(=O)NO)cc1`, the inhibition in test [2] stood at 19%; in [4] it was 57%. For `COc1ccc(S(=O)(=O)N(Cc2ccccc2)[C@H]2CCCC[C@H]2C(=O)NO)cc1`, the IC50 in test [5] came out at 361 nM; in test [3] it was 318 nM. In the case of `C#Cc1scc(C(=O)NO)c1N(Cc1ccccc1)S(=O)(=O)c1ccc(OC)cc1`, the inhibition was 38% in [6], 49% in [2] and 35% in test [7]. Consider `COc1ccc(S(=O)(=O)N(Cc2ccccc2)c2cscc2C(=O)NO)cc1`, for which the values for the inhibition in test [2] and in test [4] were 40% and 67%, respectively. As to `COc1ccc(S(=O)(=O)N(Cc2ccccc2)c2c(C(=O)NO)csc2Br)cc1`, inhibition in [8] was half-maximal at 427 nM (IC50). As to `COc1ccc(S(=O)(=O)N(Cc2ccccc2)c2c(C(=O)NO)cc(OC)nc2OC)cc1`, the result in test [9] was inactive. Take `COc1ccc(S(=O)(=O)N(Cc2ccccc2)C2CCCC[C@H]2C(=O)NO)cc1` (some centres not stated): the half-maximal inhibitory concentration (IC50) in test [5] was found to be 174 nM; in test [3], 181 nM.
